# Experimental data reported in US20230081426A1, “COMPOUNDS AND METHODS FOR KRAS MODULATION AND INDICATIONS THEREFOR” (Plexxikon Inc., priority 2020, published 2023).
# Legend:
# [1] = molecular target: T1, G12D-mutant human KRAS (amino acid residues 1-188) (Homo sapiens, UniProt P01116, G12D); assay: KRAS Binding Disruption Assay (AlphaScreen; biotinylated KRpep-2d analogue or RAF1-RBD), G12D; conditions: KRAS G12D; geometric mean; read-out: KRAS GMean IC50 (uM) MUTATION: G12D
# T1 construct: G12D or G12C-mutant human KRAS (amino acid residues 1-188) with FLAG tag; made in house; host or cells: E. coli
# Procedure, shortened: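 Compounds are titrated against 5-20 nM mutant KRAS and 5-20 nM of either a biotinylated KRpep-2d analogue or RAF1-RBD, incubated 1 h at 25° C. Disruption is detected as reduced Alpha signal after 1 h with donor and acceptor beads at 10 μg/mL.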
# [2] = molecular target: T2, G12V-mutant human KRAS (amino acid residues 1-188) (Homo sapiens, UniProt P01116, G12V); assay: KRAS Binding Competition Assay (AlphaScreen; biotinylated KRpep-2d analogue), G12V; conditions: geometric mean, read-out: KRAS GMean IC50 (uM) MUTATION: G12V
# T2 construct: G12V-mutant human KRAS (amino acid residues 1-188) with FLAG tag was purified from E. coli; made in house; host or cells: E. coli
IC50 [1],IC50 [2],Compound
0.0001 to 10 µM,10 to 100 µM,"Oc1cc(-c2ccc3c(N4[C@@H]5CC[C@H]4CNC5)nc(CCc4ccccn4)nc3c2)c2ccccc2c1 [P-0232, 4-(4-((1R,5S)-3,8-diazabicyclo[3.2.1]octan-8-yl)-2-(2-(pyridin-2-yl)ethyl)quinazolin-7-yl)naphthalen-2-ol]"
0.0001 to 10 µM,10 to 100 µM,"Oc1cc(-c2ccc3c(N4[C@@H]5CC[C@H]4CNC5)nc(CC4CCNCC4)nc3c2)c2ccccc2c1 [P-0200, 4-(4-((1R,5S)-3,8-diazabicyclo[3.2.1]octan-8-yl)-2-(piperidin-4-ylmethyl)quinazolin-7-yl)naphthalen-2-ol]"
0.0001 to 10 µM,0.0001 to 10 µM,"O=C(O)CNC(=O)N1[C@@H]2CC[C@H]1CN(c1nc(OCC34CCCN3CCC4)nc3cc(-c4cc(O)cc5ccccc45)ccc13)C2 [P-0094, ((1R,5S)-3-(7-(3-hydroxynaphthalen-1-yl)-2-((tetrahydro-1H-pyrrolizin-7a(5H)-yl)methoxy)quinazolin-4-yl)-3,8-diazabicyclo[3.2.1]octane-8-carbonyl)glycine]"
0.0001 to 10 µM,0.0001 to 10 µM,"O=C(c1c[nH]c(=O)[nH]c1=O)N1[C@@H]2CC[C@H]1CN(c1nc(OCC34CCCN3CCC4)nc3cc(-c4cc(O)cc5ccccc45)ccc13)C2 [P-0108, 5-((1R,5S)-3-(7-(3-hydroxynaphthalen-1-yl)-2-((tetrahydro-1H-pyrrolizin-7a(5H)-yl)methoxy)quinazolin-4-yl)-3,8-diazabicyclo[3.2.1]octane-8-carbonyl)pyrimidine-2,4(1H,3H)-dione]"
0.0001 to 10 µM,0.0001 to 10 µM,"CN1CCC[C@H]1COc1nc(N2C[C@H]3CC[C@@H](C2)N3C(=O)CC#N)c2ccc(-c3cc(O)cc4ccccc34)cc2n1 [P-0368, 3-((1R,5S)-3-(7-(3-hydroxynaphthalen-1-yl)-2-(((S)-1-methylpyrrolidin-2-yl)methoxy)quinazolin-4-yl)-3,8-diazabicyclo[3.2.1]octan-8-yl)-3-oxopropanenitrile]"
0.0001 to 10 µM,0.0001 to 10 µM,"Oc1cc(-c2ccc3c(N4[C@@H]5CC[C@H]4CNC5)nc(Cc4cccnc4)nc3c2)c2ccccc2c1 [P-0240, 4-(4-((1R,5S)-3,8-diazabicyclo[3.2.1]octan-8-yl)-2-(pyridin-3-ylmethyl)quinazolin-7-yl)naphthalen-2-ol]"
10 to 100 µM,10 to 100 µM,"CN1CCC[C@H]1COc1nc(N2[C@@H]3CC[C@H]2CN(C(=N)N)C3)c2ccc(-c3cc(O)cc4ccccc34)cc2n1 [P-0231, (1R,5S)-8-(7-(3-hydroxynaphthalen-1-yl)-2-(((S)-1-methylpyrrolidin-2-yl)methoxy)quinazolin-4-yl)-3,8-diazabicyclo[3.2.1]octane-3-carboximidamide]"
0.0001 to 10 µM,0.0001 to 10 µM,"CN1CCCC(Oc2nc(N3[C@@H]4CC[C@H]3CNC4)c3ccc(-c4cc(O)cc5ccccc45)cc3n2)C1 (stereo partly drawn) [P-0239, 4-(4-((1R,5S)-3,8-diazabicyclo[3.2.1]octan-8-yl)-2-((1-methylpiperidin-3-yl)oxy)quinazolin-7-yl)naphthalen-2-ol]"
0.0001 to 10 µM,0.0001 to 10 µM,"CN1CCC[C@H]1COc1nc(N2C[C@H]3CC[C@@H](C2)N3C(=O)CCn2ccnc2)c2ccc(-c3cc(O)cc4ccccc34)cc2n1 [P-0382, 1-((1R,5S)-3-(7-(3-hydroxynaphthalen-1-yl)-2-(((S)-1-methylpyrrolidin-2-yl)methoxy)quinazolin-4-yl)-3,8-diazabicyclo[3.2.1]octan-8-yl)-3-(1H-imidazol-1-yl)propan-1-one]"
0.0001 to 10 µM,10 to 100 µM,"CN1CCC[C@H]1COc1nc(N2[C@@H]3CC[C@H]2CN(C(=O)NC2CN4CCC2CC4)C3)c2ccc(-c3cc(O)cc4ccccc34)cc2n1 (stereo partly drawn) [P-0208, (1R,5S)-8-(7-(3-hydroxynaphthalen-1-yl)-2-(((S)-1-methylpyrrolidin-2-yl)methoxy)quinazolin-4-yl)-N-(quinuclidin-3-yl)-3,8-diazabicyclo[3.2.1]octane-3-carboxamide]"
0.0001 to 10 µM,0.0001 to 10 µM,"O=C(C1C2CCC1CNC2)N1[C@@H]2CC[C@H]1CN(c1nc(OCC34CCCN3CCC4)nc3c(F)c(-c4cc(O)cc5ccccc45)ccc13)C2 (stereo partly drawn) [P-0147, (3-azabicyclo[3.2.1]octan-8-yl)((1R,5S)-3-(8-fluoro-7-(3-hydroxynaphthalen-1-yl)-2-((tetrahydro-1H-pyrrolizin-7a(5H)-yl)methoxy)quinazolin-4-yl)-3,8-diazabicyclo[3.2.1]octan-8-yl)methanone]"
100 to 1000 µM,100 to 1000 µM,"CN1CCC[C@H]1COc1nc(N2[C@@H]3CC[C@H]2CN(C2CNC2)C3)c2ccc(-c3cc(O)cc4ccccc34)cc2n1 [P-0226, 4-(4-((1R,5S)-3-(azetidin-3-yl)-3,8-diazabicyclo[3.2.1]octan-8-yl)-2-(((S)-1-methylpyrrolidin-2-yl)methoxy)quinazolin-7-yl)naphthalen-2-ol]"

# Further lines, the compound ahead of its results:
Compound,IC50 [1],IC50 [2]
"Cc1c(-c2c(F)cc3c(N4C[C@H]5CC[C@@H](C4)N5)nc(OC[C@@H]4CCCN4C)nc3c2F)cccc1C(F)(F)F [P-0474, 4-((1R,5S)-3,8-diazabicyclo[3.2.1]octan-3-yl)-6,8-difluoro-7-(2-methyl-3-(trifluoromethyl)phenyl)-2-(((S)-1-methylpyrrolidin-2-yl)methoxy)quinazoline]",0.0001 to 10 µM,10 to 100 µM
"CN1CCCC1COc1nc(N2C[C@H]3CC[C@@H](C2)N3C(=O)NC2CN3CCC2CC3)c2ccc(-c3cc(O)cc4ccccc34)c(F)c2n1 (stereo partly drawn) [P-0421, (1R,5S)-3-(8-fluoro-7-(3-hydroxynaphthalen-1-yl)-2-((1-methylpyrrolidin-2-yl)methoxy)quinazolin-4-yl)-N-(quinuclidin-3-yl)-3,8-diazabicyclo[3.2.1]octane-8-carboxamide]",0.0001 to 10 µM,10 to 100 µM
"CN1CCC[C@H]1COc1nc(N2CC3COCC(C2)N3C(=O)NC2CCOC2)c2ccc(-c3cc(O)cc4ccccc34)c(F)c2n1 (mixture of isomers) [P-0251, rac-7-(8-fluoro-7-(3-hydroxynaphthalen-1-yl)-2-(((R)-1-methylpyrrolidin-2-yl)methoxy)quinazolin-4-yl)-N-(tetrahydrofuran-3-yl)-3-oxa-7,9-diazabicyclo[3.3.1]nonane-9-carboxamide]",0.0001 to 10 µM,0.0001 to 10 µM
"CN1CCC[C@H]1COc1nc(N2C[C@H]3CC[C@@H](C2)N3)c2ccc(-c3cc(N)c(Cl)cc3Cl)cc2n1 [P-0157, 5-(4-((1R,5S)-3,8-diazabicyclo[3.2.1]octan-3-yl)-2-(((S)-1-methylpyrrolidin-2-yl)methoxy)quinazolin-7-yl)-2,4-dichloroaniline]",10 to 100 µM,100 to 1000 µM
"O=C(Cc1n[nH]c2ccccc12)N1[C@@H]2CC[C@H]1CN(c1nc(OCC34CCCN3CCC4)nc3c(F)c(-c4cc(O)cc5ccccc45)ccc13)C2 [P-0433, 1-((1R,5S)-3-(8-fluoro-7-(3-hydroxynaphthalen-1-yl)-2-((tetrahydro-1H-pyrrolizin-7a(5H)-yl)methoxy)quinazolin-4-yl)-3,8-diazabicyclo[3.2.1]octan-8-yl)-2-(1H-indazol-3-yl)ethan-1-one]",0.0001 to 10 µM,0.0001 to 10 µM
"Cc1cccc2c1N(c1ccc3c(N4C[C@H]5CC[C@@H](C4)N5)nc(OCC45CCCN4CCC5)nc3c1F)CC(O)C2 (stereo partly drawn) [P-0454, 1-(4-((1R,5S)-3,8-diazabicyclo[3.2.1]octan-3-yl)-8-fluoro-2-((tetrahydro-1H-pyrrolizin-7a(5H)-yl)methoxy)quinazolin-7-yl)-8-methyl-1,2,3,4-tetrahydroquinolin-3-ol]",0.0001 to 10 µM,100 to 1000 µM
"CN1CCC[C@H]1COc1nc(N2C[C@H]3CC[C@@H](C2)N3)c2cc(F)c(-c3c[nH]c4ccc(Cl)cc34)c(F)c2n1 [P-0310, 4-((1R,5S)-3,8-diazabicyclo[3.2.1]octan-3-yl)-7-(5-chloro-1H-indol-3-yl)-6,8-difluoro-2-(((S)-1-methylpyrrolidin-2-yl)methoxy)quinazoline]",0.0001 to 10 µM,10 to 100 µM
"CN1CCC[C@H]1COc1nc(N2C[C@H]3CC[C@@H](C2)N3C(=O)CCCn2ccnc2)c2ccc(-c3cc(O)cc4ccccc34)c(F)c2n1 [P-0393, 1-((1R,5S)-3-(8-fluoro-7-(3-hydroxynaphthalen-1-yl)-2-(((S)-1-methylpyrrolidin-2-yl)methoxy)quinazolin-4-yl)-3,8-diazabicyclo[3.2.1]octan-8-yl)-4-(1H-imidazol-1-yl)butan-1-one]",0.0001 to 10 µM,0.0001 to 10 µM
"CN1CCC[C@H]1COc1nc(N2C[C@H]3CC[C@@H](C2)N3)c2ccc(-c3cc(Cl)ccc3O)cc2n1 [P-0166, 2-(4-((1R,5S)-3,8-diazabicyclo[3.2.1]octan-3-yl)-2-(((S)-1-methylpyrrolidin-2-yl)methoxy)quinazolin-7-yl)-4-chlorophenol]",100 to 1000 µM,100 to 1000 µM
"OCCCN1[C@@H]2CC[C@H]1CN(c1nc(OCC34CCCN3CCC4)nc3c(F)c(-c4cc(O)cc5ccccc45)ccc13)C2 [P-0628, 4-(8-fluoro-4-((1R,5S)-8-(3-hydroxypropyl)-3,8-diazabicyclo[3.2.1]octan-3-yl)-2-((tetrahydro-1H-pyrrolizin-7a(5H)-yl)methoxy)quinazolin-7-yl)naphthalen-2-ol]",0.0001 to 10 µM,0.0001 to 10 µM
"O=C(Cc1c[nH]cn1)N1[C@@H]2CC[C@H]1CN(c1nc(OCC34CCCN3CCC4)nc3c(F)c(-c4cc(O)cc5ccccc45)ccc13)C2 [P-0188, 1-((1R,5S)-3-(8-fluoro-7-(3-hydroxynaphthalen-1-yl)-2-((tetrahydro-1H-pyrrolizin-7a(5H)-yl)methoxy)quinazolin-4-yl)-3,8-diazabicyclo[3.2.1]octan-8-yl)-2-(1H-imidazol-4-yl)ethan-1-one]",0.0001 to 10 µM,0.0001 to 10 µM
